Assay: Stability in alkaline solution (residual ester bonds by 1H-NMR after storage)
Type: physicochemical
Conditions: 7 d, 50 wt % in water
Protocol: To determine the stability under alkaline conditions, 50 wt % of the organic sulfonic acid salt of an amino acid ester is dissolved in water, pH is adjusted with sodium hydroxide to pH 8.5. The aqueous solution or emulsion is stored for 7 days at room temperature and 40° C. Before storage the integral of CH2-O—CO— (^1H-NMR in MeOD, ˜4.2 ppm) is measured. The stability of organic sulfonic acid salt of an amino acid ester is indicated by measuring the integral of CH2-O—CO— (^1H-NMR in MeOD) after storage.

SMILES | Residual amount of ester bonds after storage, calculated from 1H-NMR in MeOD (pH 8.5, 40° C.) [%] | Residual amount of ester bonds after storage, calculated from 1H-NMR in MeOD (pH 8.5, RT) [%]
CCCCC(CC)COC(=O)CCCCCN.CCCCCCCCCCCCc1ccc(S(=O)(=O)O)cc1 [Example 11, 6-amino-hexane acid-2-ethylhexylester 4-dodecylbenzene sulfonic acid salt] | 100 | 100
CCCCC(CC)COC(=O)CN.CS(=O)(=O)O (stereo not drawn) [compound 3] | 20 | 37
CCCCC(CC)COC(=O)C(C)N.CS(=O)(=O)O (stereo not drawn) [compound 4] | 46 | 72

Reference: patent US11780802B2, “Organic sulfonic acid salts of amino acid esters and process for their preparation” (priority 2017, dated 2023)
